Experimental data from patent US9452185B2, “Mesenchymal stem cells and supports for tissue regeneration, repair and reconstruction” (THE TEXAS A&M UNIVERSITY SYSTEM, priority 2009, dated 2016).
“Also recorded” adds a separate entry of the source.

Tests used:
Assay type in all cases: cell-based, human
hMSCs [1] = assay: Alkaline phosphatase (ALP) activity of hMSCs in osteogenic media
Protocol: For non-mineralizing osteogenic differentiation, hMSCs were plated in 12-well plates at 100 cells cm^−2. Upon reaching about 70% confluency, the media was changed to osteogenic base media (OBM) containing 50 μg mL^−1 ascorbic acid and 5 mM β-glycerol phosphate and either GW9662 or DMSO. Media was changed every 2 days for 8-10 days following measurement of ALP activity. For this purpose, the monolayer was washed with PBS and then with ALP reaction buffer (100 mM Tris-HCl, pH 9, containing 100 mM KCl and 1 mM MgCl2). One half mL of ALP buffer then 0.5 mL p-nitrophenol phosphate (PNPP) was rapidly added to the wells. ALP activity was measured as the rate of PNPP conversion to p-nitrophenolate by monitoring the absorbance at 405 nm every 30 seconds for 9 minutes using a plate reader. The rates were normalized against cell number and statistically analyzed using one-way analysis of variance (ANOVA) and Tukey post test for multiple comparisons or by Student's t-test, for single, unrelated comparisons.
Early osteogenic differentiation and alkaline phosphatase assays. MSCs were plated in 6-well plates at an initial plating density of 100 cells per cm^2 and cultured in standard complete media for 6 days until semi-confluence (approximately 5,000 cells per cm^2). Osteogenic base media consisting of complete media containing 5 mM β-GP and 50 μg mL^−1 ascorbate-2-phosphate and the appropriate inhibitor or vehicle was then used to induce early osteogenic differentiation. Assays were allowed to proceed for 8-10 days with changes of media every 2 days. ALP assays were performed as previously described (Gunn et al., 2006, Stem Cells 24:986-991).
(§1) In order to characterize the influence of 7AIPM on osteogenic differentiation, hMSC's from two donors were cultured as described elsewhere herein with the addition of varying concentrations of the compound or vehicle to the media. Samples of the media were collected daily for analysis. These samples were analyzed for the presence of OPG and Dkk-1 using ELISA. Alkaline phosphatase activity of the monolayers and cell numbers were measured using a spectrophotometer.

hMSCs [2] = assay: Microarray of cultured hMSCs after 8 days in osteogenic media (in vitro); settings: for transcript transducin-like enhancer of split-1 / transcripts Klf-6, caldesmon-1, gamma-aminobutyric acid B receptor-2, synaptotagmin like-2 / transcripts fibroblast growth factor-7, high mobility group AT-hook 2, Cdk5 and Abl enzyme substrate-1, amyloid beta precursor protein-binding family B2 / transcripts protocadherin-7, PR domain containing-1, gremlin-1, collectin subfamily member-12, stanniocalcin-2: 8 days, 200/800 nM BIO, 1.0/10 μM GW; for collagens and ECM proteins found in bone tissue (transcripts): vs vehicle control
Protocol: Array analysis. Transcriptome arrays were performed using Affimetrix apparatus and HG-U133 Plus 2.0 chips. Cytokine arrays on conditioned media were performed using a human cytokine array and analyzed using a digital imager. Effects of GSK3β and PPARγ inhibition on the transcriptome of hMSCs. […] After 8 days of culture, RNA microarrays were performed on the hMSCs.

β-catenin, GSK3β, PPARγ = assay: Intracellular distribution of β-catenin, GSK3β and PPARγ (immunoblot, fluorescence microscopy); settings: for GSK3β in the cytoplasm / nuclear β-catenin: MSCs under osteogenic conditions
Protocol: Protein extraction, gel electrophoresis and western blotting. Nuclear extracts were performed by Triton extraction and differential centrifugation as previously described (Gregory et al., 2003, J Biol Chem 278:2806728078). Proteins were electrophoresed and blotted onto nitrocellulose using an electrophoresis system. Histochemistry and immunocytochemistry. For β-catenin localization studies, hMSCs were stained with a cy-3 conjugated anti-β-catenin antibody and nuclei were counterstained with pico-green dye. Specimens were processed as paraffin blocks and 8 longitudinal sections were prepared, deparaffinized and rehydrated, then stained with hematoxylin and eosin. For immunocytochemistry, sections were probed with an anti-human β-2-microglobulin antibody. An upright fluorescent microscope fitted with a high performance camera (and image analysis software was employed for imaging.

osteoprotegerin (OPG) = assay: OPG secretion by ELISA; settings: osteogenic medium lacking dex, 8 days
Protocol: as §1, with “ELISAs. ELISA for CXCL6, Dkk-1, GROa, GRO13, and OPG were carried out by using nonbiotinylated polyclonal capture antibodies and biotinylated detection antibodies that were commercially acquired on coated 96-well plates The biotinylated […] antibodies were detected by using horseradish peroxidase-conjugated streptavidin and TMB substrate. ELISA for IL-lb were performed by using commercially acquired kits. In” for “In”

hMSCs [3] = assay: hMSC yield, cell cycle analysis and cleaved caspase-3 immunoblot; settings: for hMSC yield: BIO at concentrations greater than 400 nM, GW at tested doses; for cleaved caspase-3 (Asp175) immunoblot: whole cell extracts of treated hMSCs
Protocol: Cell cycle. Profiles were generated by fluorescence activated cell sorting and analyzed with software. Protein extraction, gel electrophoresis and western blotting. Nuclear extracts were performed by Triton extraction and differential centrifugation as previously described (Gregory et al., 2003, J Biol Chem 278:2806728078). Proteins were electrophoresed and blotted onto nitrocellulose using an electrophoresis system.

Dkk-1 = Dkk-1 secretion by ELISA; settings: osteogenic medium lacking dex, 8 days
Protocol: as §1, with “ELISAs. ELISA for CXCL6, Dkk-1, GROa, GRO13, and OPG were carried out by using nonbiotinylated polyclonal capture antibodies and biotinylated detection antibodies that were commercially acquired on coated 96-well plates The biotinylated […] antibodies were detected by using horseradish peroxidase-conjugated streptavidin and TMB substrate. ELISA for IL-lb were performed by using commercially acquired kits. In” for “In”

[4] = osteogenic media without dexamethasone, 8 days
[5] = osteogenic medium lacking dex, 8 days

ALP activity (hMSCs [1]; [4])	transcripts Klf-6, caldesmon-1, gamma-aminobutyric acid B receptor-2, synaptotagmin like-2 (hMSCs [2])	transcripts fibroblast growth factor-7, high mobility group AT-hook 2, Cdk5 and Abl enzyme substrate-1, amyloid beta precursor protein-binding family B2 (hMSCs [2])	hMSC yield (hMSCs [3])	cleaved caspase-3 (Asp175) immunoblot (hMSCs [3])	dose of maximal effect on ALP activity (hMSCs [1]; [5]) [nM]	SMILES	ALP activity (hMSCs [1]; hMSCs in osteogenic media with GW9662 vs DMSO)	dose at which ALP activity dropped back to control levels (hMSCs [1]; [5])	transcript transducin-like enhancer of split-1 (hMSCs [2])	transcripts protocadherin-7, PR domain containing-1, gremlin-1, collectin subfamily member-12, stanniocalcin-2 (hMSCs [2])	inflammatory mediator genes (IL1, IL8, CXCL chemokines) (hMSCs [2]; vs control)	collagens and ECM proteins found in bone tissue (transcripts) (hMSCs [2])	nuclear levels of PPARγ (β-catenin, GSK3β, PPARγ)	GSK3β in the cytoplasm (β-catenin, GSK3β, PPARγ)	nuclear β-catenin (β-catenin, GSK3β, PPARγ)	dose of maximal stimulation of OPG secretion (osteoprotegerin (OPG)) [µM]	Dkk-1 secretion (Dkk-1)	secretion of OPG (osteoprotegerin (OPG))	cell cycle effect (hMSCs [3]; 800 nM BIO, 8 days)
induced	significantly up-regulated	significantly up-regulated	without reduction in cellular yield	no evidence of caspase 3 processing		O=C(Nc1ccccc1)c1cc([N+](=O)[O-])ccc1Cl [GW9662, 2-chloro-5-nitro-N-phenyl-benzamide]	dose-dependent increase; also recorded: substantially upregulated; also recorded: substantially up-regulated; also recorded: increased	> 1.0 µM	down-regulated	no change	profoundly down-regulated	up-regulated	reduced	depletion	increased levels	0.5	reduced		
induced	significantly up-regulated	no change	substantial reduction	no evidence of caspase 3 processing	100 to 200	O=C1Nc2cc(Br)ccc2/C1=C1/Nc2ccccc2/C1=N\O [BIO, bromo-indirubin-3′-mono-oxime]		exceeding 400 nM	down-regulated	significantly up-regulated		up-regulated	reduced	depletion	increased levels		reduced	rose in a dose dependent manner	inhibit mitosis
